Tested on: LLC cells
Assay: Antitumor effect of combined use of LPA and immune checkpoint inhibitor
Assay type: in vivo
Settings: LLC-bearing mice; LPA 3 mg/kg i.p. day 6 to day 20; anti-PD-1 antibody 100 μg/mouse i.p. on days 7, 9, 11, 14, 16, 18; volume until day 21
Protocol: LLC cells (1×10^6 cells in 100 μL PBS per animal) were subcutaneously injected into C57BL/6 NCrSlc mice aged 8 weeks (females) in the same manner as in Reference Example 1. On day 6 post-inoculation, LLC-bearing mice that had developed a tumor with a volume of 30 to 40 mm^3 (volume=length×width×height×0.5) were selected. The mice were divided into four groups: a control group, an LPA administration group, an anti-PD-1 antibody administration group and an LPA plus anti-PD-1 antibody administration group, and subjected to the experiment. To the LPA administration group and to the LPA plus anti-PD-1 antibody administration group, LPA (3 mg/kg/100 μL) was intraperitoneally administered consecutively from day 6 through day 20 post-inoculation of the tumor cells. In the anti-PD-1 antibody administration group and in the LPA plus anti-PD-1 antibody administration group, anti-PD-1antibody therapy was started from day 7 post-inoculation of the tumor cells. Specifically, an anti-mouse PD-1 antibody (Clone: RMP1-14, BioXcell, BE0146) was intraperitoneally administered at a dose of 100 μg/mouse on day 7, day 9, day 11, day 14, day 16 and day 18 post-inoculation of the tumor cells. […] Tumor volume was measured over time until day 21.

Substance: lysophosphatidic acid [LPA]
- inhibition of tumor growth (tumor volume) versus control group: slightly inhibited tumor growth

Reference: patent US11033559B2, “Leukocyte infiltration promoting agent and antitumor immunostimulatory agent” (OSAKA UNIVERSITY, priority 2015, dated 2021)
